Assay results taken from publication PMC7462607 (eLife, 2020).
Like-named read-outs stand apart in the source and are kept apart here.

B1: HBx peptide (α-helical motif of the hepatitis B virus X protein) (peptide)
peptide: ILPKVLHKRTLGLS
notes: peptide corresponding to the α-helical motif of hepatitis B virus X protein (HBx); also called HBx peptides; source: synthetic peptide (ChinaPetides, purity 96%)

Key:
CCNK-luc reporter = experiment: CCNK-luc degradation assay; format: cell-based, Homo sapiens
Experimental: The ORF for CCNK was fused with the firefly luciferase (luc) sequence and inserted into the pCDNA3.1 vector. For setting up cells for co-transfection, 0.6 million 293 T cells were seeded per well in 6-well plates and allowed to attach to plates overnight. These cells were then transfected with 50 ng of pCDNA3.1-3xFLAG-CDK12 kinase domain, 50 ng of pCDNA3.1-CCNK-luc, and 400 ng of the empty pCDNA3.1 vector. Twenty-four hours later, transfected cells were dissociated by trypsin digestion and then plated in 96-well white plates. After overnight attachments, cells were then treated with HQ461 and its analog derivatives for 8 hr followed by measurements of luciferase activity with Bright-Glo luciferase assay system (Promega, Madison, USA). Half maximal CCNK-degradation concentrations (DC50) of HQ461 and its active analogs were interpolated by curve fitting with GraphPad Prism using baseline correction (by normalizing to DMSO control), the asymmetric (five parameter) equation, and least squares fit.

CCNK = experiment: Western blotting of CCNK protein level in A549 cells; format: cell-based, Homo sapiens; settings: for CCNK degradation by compound alone: A549; for effect on HQ461-induced CCNK degradation: A549 treated with inhibitor prior to HQ461 treatment; for effect on HQ461-dependent CCNK degradation: A549 treated with HQ461 plus inhibitor
Experimental: Standard SDS-PAGE and western blotting procedures were used with the following modifications. For preparation of total lysates, cells were rinsed with DPBS to remove residual medium and then lysed in 20 mM HEPES-NaOH, pH 8.0, 10 mM NaCl, 2 mM MgCl2, 1% SDS freshly supplemented with 0.5 units/µL of benzonase and 1x cOmplete, Mini, EDTA-free protease inhibitor cocktail (Roche, Bazel, Switzerland). Protein concentrations of the resulting lysates were quantified by the BCA method. Between 30 to 60 µg of proteins were resolved on SDS-PAGE and transferred to nitrocellulose membranes with a pore size of 0.5 μm. Membranes were blocked in 5% nonfat milk PBST (0.1% v/v Tween-20) for 30 min before blotting with antibodies. The following primary antibodies were used by dilution in 5% nonfat milk PBST: anti-NRF2 (Abcam, Cambridge, UK, ab62352, 1:4,000), anti-β-Actin-HRP (Huaxingbio, Beijing, China, HX18271,1:10,000), anti-α-Tubulin-HRFP (MBL Life Science, Japan, PM054-7, 1:10,000), anti-DDB1 (Abcam, Cambridge, UK, ab109027, 1:10,000), anti-RBX1 (Proteintech, Wuhan, China, 14895–1-AP, 1:5,000), anti-UBE2G1 (Proteintech, Wuhuan, China, 12012–1-AP, 1:2,000), anti-CDK12 (Cell Signaling Technology, Danvers, USA, 11973S,1:4,000), anti-CCNK (Bethyl lab, Montgomery, USA, A301-939A-T,1:4,000), anti-FLAG-HRP (Sigma-Aldrich, MO, USA, A8592, 1:10,000), anti-HA (BioLegend, San Diego, USA, 901533, 1:4,000), anti-RNA polymerase II subunit B1 (phospho CTD Ser-2) clone 3E10 (Sigma-Aldrich, MO, USA, 04–1571, 1:5,000), and anti-RNA polymerase II CTD repeat YSPTSPS antibody clone 8WG16 (Abcam, Cambridge, UK, ab817, 1:5,000). The following HRP-linked secondary antibodies were used by dilution in PBST: anti-rabbit IgG (Cell Signaling Technology, Danvers, USA, 7074S, 1:10,000), anti-mouse IgG (Zsbio, Beijing, China, ZB-2305, 1:10,000), and anti-rat IgG, (Sino Biological, Beijing, China, SSA005, 1:10,000). M5 HiPer ECL Western HRP Substrate (Mei5bio, Beijing, China, MF074-01) was used for the detection of HRP enzymatic activity. Western blot images were taken with a VILBER FUSION FX7 imager.

[1] = biological target: T1, FLAG-Avi-DDB1 and His-CDK12KD/His-CCNKΔC (WT) (Homo sapiens, UniProt Q9NYV4); experiment: AlphaScreen assay, WT; format: binding; settings: preincubated with 5 µM THZ531
T1 construct: Human CDK12KD (residues 715–1052); made in house; host or cells: Sf9 or High Five (CDK12KD/CCNKΔC, co-infected with yeast CAK1); 293F with BirA (FLAG-Avi-DDB1)
T1 sequence (Q9NYV4 715-1052 limits assumed, stated change not applied): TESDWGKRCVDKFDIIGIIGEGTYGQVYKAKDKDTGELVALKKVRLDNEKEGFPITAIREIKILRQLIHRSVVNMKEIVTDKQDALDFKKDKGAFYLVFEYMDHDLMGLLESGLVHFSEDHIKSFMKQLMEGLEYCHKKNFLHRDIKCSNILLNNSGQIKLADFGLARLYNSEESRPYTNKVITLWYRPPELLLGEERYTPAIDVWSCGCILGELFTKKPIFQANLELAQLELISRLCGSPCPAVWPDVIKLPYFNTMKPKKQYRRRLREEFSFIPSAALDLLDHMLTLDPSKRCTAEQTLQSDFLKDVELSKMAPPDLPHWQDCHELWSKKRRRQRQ
T1 sequence (O75909 11-267 partner limits assumed): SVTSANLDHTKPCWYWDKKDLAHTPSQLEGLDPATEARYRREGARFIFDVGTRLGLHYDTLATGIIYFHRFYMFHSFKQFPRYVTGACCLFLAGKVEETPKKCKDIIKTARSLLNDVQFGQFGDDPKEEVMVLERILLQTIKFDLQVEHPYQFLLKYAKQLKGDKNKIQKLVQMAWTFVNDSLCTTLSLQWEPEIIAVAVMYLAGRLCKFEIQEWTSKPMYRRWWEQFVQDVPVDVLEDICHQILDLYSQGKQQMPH
T1 sequence (Q16531 whole entry partner, the tested form may be a part): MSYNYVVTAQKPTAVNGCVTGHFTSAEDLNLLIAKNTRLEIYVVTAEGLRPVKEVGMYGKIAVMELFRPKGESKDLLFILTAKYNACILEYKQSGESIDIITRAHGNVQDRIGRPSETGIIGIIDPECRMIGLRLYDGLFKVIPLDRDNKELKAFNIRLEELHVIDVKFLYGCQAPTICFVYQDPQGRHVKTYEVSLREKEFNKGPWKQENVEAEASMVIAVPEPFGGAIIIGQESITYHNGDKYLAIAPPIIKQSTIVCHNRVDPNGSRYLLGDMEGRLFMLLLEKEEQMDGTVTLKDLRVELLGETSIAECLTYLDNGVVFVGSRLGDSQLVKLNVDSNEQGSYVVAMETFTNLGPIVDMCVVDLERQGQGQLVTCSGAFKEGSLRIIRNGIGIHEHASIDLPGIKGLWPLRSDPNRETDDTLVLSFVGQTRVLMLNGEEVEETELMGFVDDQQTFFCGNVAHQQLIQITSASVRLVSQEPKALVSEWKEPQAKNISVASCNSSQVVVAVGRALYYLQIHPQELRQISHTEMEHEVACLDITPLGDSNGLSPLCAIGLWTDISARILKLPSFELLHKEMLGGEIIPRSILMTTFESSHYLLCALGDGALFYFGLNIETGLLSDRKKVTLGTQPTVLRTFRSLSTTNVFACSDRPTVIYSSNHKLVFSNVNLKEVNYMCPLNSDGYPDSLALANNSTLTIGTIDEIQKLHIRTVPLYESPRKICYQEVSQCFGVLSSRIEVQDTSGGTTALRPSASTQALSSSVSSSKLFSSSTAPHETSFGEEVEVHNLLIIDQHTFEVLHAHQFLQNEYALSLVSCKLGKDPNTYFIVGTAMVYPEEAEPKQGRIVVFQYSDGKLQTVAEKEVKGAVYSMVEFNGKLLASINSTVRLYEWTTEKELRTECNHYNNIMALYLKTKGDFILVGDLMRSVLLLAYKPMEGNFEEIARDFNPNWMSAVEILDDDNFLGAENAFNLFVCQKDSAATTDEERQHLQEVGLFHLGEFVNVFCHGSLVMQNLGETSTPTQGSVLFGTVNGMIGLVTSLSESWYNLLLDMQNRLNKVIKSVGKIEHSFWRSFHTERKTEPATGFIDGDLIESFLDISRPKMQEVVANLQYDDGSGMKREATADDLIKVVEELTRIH
Experimental: Biotinylated FLAG-Avi-DDB1 (3 µM) and 6xHis-CDK12KD/6xHis-CCNKΔC (WT or G731E/R mutants) (3 µM) were mixed in an assay buffer (50 mM HEPES, pH7.5, 300 mM NaCl, 0.5 mM TCEP, 0.1% NP-40, 0.1% BSA) and a serial dilution of HQ461.The protein-compound mix was transferred to 384-well plates (Corning, Corning, USA); 15 μL per well. After a 1 hr room temperature incubation, 10 µL of nickel chelate (Ni-NTA) acceptor beads (PerkinElmer, Waltham, USA, Waltham, USA, 6760619C) (1:100 diluted with assay buffer) was added per well. After incubation in the dark for 1 hr at room temperature, 10 μL of streptavidin donor beads (PerkinElmer, Waltham, USA, 6760619C) (1:100 diluted in assay buffer) was added per well. After another 1 hr incubation, AlphaScreen signal was measured on the EnVision multimode plate reader (PerkinElmer, Waltham, USA). For THZ531 competition, FLAG-Avi-DDB1, 6xHis-CDK12KD/6xHis-CCNKΔC mix was preincubated with 5 μM of THZ531 for 30 min on ice followed by the procedures described above.

[2] = biological target: T2, DDB1ΔBPB (DDB1 without its BPB domain) (human, UniProt Q16531-1 1-1140, removing residues 400–704); experiment: differential scanning fluorimetry; 5 µM DDB1ΔBPB with 10 µM HBx peptide; SYPRO Orange; 50 mM HEPES pH 7.5, 300 mM NaCl, 0.5 mM TCEP; 10°C to 95°C; settings: both partners purified
T2 construct: also called Strep-8×His-DDB1ΔBPB
T2 sequence (Q16531 other isoform, or with tags, fused parts or gaps with the stated changes): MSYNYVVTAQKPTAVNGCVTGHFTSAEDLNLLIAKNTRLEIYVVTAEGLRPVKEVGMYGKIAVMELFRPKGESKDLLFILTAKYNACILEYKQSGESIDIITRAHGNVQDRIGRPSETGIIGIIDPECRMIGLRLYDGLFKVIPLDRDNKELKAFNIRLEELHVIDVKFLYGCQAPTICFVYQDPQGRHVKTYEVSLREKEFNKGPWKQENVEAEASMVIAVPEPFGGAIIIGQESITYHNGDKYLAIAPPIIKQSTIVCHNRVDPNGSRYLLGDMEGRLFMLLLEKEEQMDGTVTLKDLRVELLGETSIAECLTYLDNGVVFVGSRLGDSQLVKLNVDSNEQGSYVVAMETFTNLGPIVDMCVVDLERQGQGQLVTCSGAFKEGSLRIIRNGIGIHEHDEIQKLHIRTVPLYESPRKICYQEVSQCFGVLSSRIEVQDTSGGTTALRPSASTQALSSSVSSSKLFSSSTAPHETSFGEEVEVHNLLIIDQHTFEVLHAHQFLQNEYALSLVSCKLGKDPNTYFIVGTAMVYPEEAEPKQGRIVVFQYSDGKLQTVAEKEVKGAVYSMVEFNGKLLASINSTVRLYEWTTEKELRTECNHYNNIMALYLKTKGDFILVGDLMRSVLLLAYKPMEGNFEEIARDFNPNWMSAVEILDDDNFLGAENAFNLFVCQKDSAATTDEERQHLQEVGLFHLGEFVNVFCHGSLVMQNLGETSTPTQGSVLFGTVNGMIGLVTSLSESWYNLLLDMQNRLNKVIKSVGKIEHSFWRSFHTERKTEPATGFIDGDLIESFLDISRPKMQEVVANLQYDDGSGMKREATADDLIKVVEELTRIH

[3] = 293T, 8 hr, read-out: DC50 (half maximal CCNK-degradation concentration)

| Molecule | DC50 (CCNK-luc reporter; [3]) | Dmax (10 μM), percentage of CCNK degradation relative to DMSO control (CCNK-luc reporter; 8 hr) | further results |
| --- | --- | --- | --- |
| Cc1cnc(NC(=O)Cc2csc(Nc3cccc(N)n3)n2)s1 [HQ007, 2-(2-((6-aminopyridin-2-yl)amino)thiazol-4-yl)-N-(5-methylthiazol-2-yl)acetamide] | 561 nM | – | – |
| Cc1cnc(NC(=O)Cc2csc(Nc3cccc(F)n3)n2)s1 [HQ001, 2-(2-((6-fluoropyridin-2-yl)amino)thiazol-4-yl)-N-(5-methylthiazol-2-yl)acetamide] | 300 nM | – | – |
| Cc1cnc(NC(=O)Cc2csc(N)n2)s1 [HQ011, 2-(2-aminothiazol-4-yl)-N-(5-methylthiazol-2-yl)acetamide] | – | – | CCNK degradation activity relative to HQ461 (CCNK-luc reporter): losses in activity |
| O=C(Cc1csc(Nc2ccccn2)n1)NCc1nc2ccccc2[nH]1 [HQ020] | – | 15.5% | – |
| Cc1ccnc(Nc2nc(CC(=O)Nc3nc4c(s3)CCCC4)cs2)c1 [HQ018] | – | 18.8% | – |
| CC(=O)Nc1nc(CC(=O)Nc2ncc(C)s2)cs1 [HQ019] | – | 62.0% | CCNK degradation activity relative to HQ461 (CCNK-luc reporter): losses in activity |
| CCc1cnn2c(NCc3ccc[n+]([O-])c3)cc(N3CCCC[C@H]3CCO)nc12 [dinaciclib] | – | – | CCNK degradation by compound alone (CCNK): Neither THZ531 nor dinaciclib treatment caused CCNK degradation; effect on HQ461-induced CCNK degradation (CCNK): prevented CCNK degradation |
| NC(=O)CNC(=O)Cc1csc(Nc2ccccn2)n1 [HQ022] | – | 25.7% | – |
| CN(C)C/C=C/C(=O)Nc1ccc(C(=O)N2CCC[C@@H](Nc3ncc(Cl)c(-c4c[nH]c5ccccc45)n3)C2)cc1 [THZ531] | – | – | effect on HQ461-dependent formation of the CDK12KD/CCNKΔC/DDB1 complex [1]: inhibited HQ461-dependent formation of the CDK12KD/CCNKΔC/DDB1 complex; CCNK degradation by compound alone (CCNK): Neither THZ531 nor dinaciclib treatment caused CCNK degradation; effect on HQ461-induced CCNK degradation (CCNK): prevented CCNK degradation |
| CCc1ccccc1NC(=O)Cc1csc(Nc2ccccn2)n1 [HQ023] | – | 3.0% | – |
| Cc1cnc(NC(=O)Cc2csc(Nc3cccc(CO)n3)n2)s1 [HQ005, 2-(2-((6-(hydroxymethyl)pyridin-2-yl)amino)thiazol-4-yl)-N-(5-methylthiazol-2-yl)acetamide] | – | 86.5% | fold increase in potency relative to HQ461 (CCNK-luc reporter): 3 fold; DC50 (CCNK-luc reporter; read-out: DC50): 41 nM |
| NC(=O)c1ccccc1NC(=O)Cc1csc(Nc2ccccn2)n1 [HQ021] | – | 7.8% | – |
| CCc1cccc(Nc2nc(CC(=O)Nc3ncc(C)s3)cs2)n1 [HQ004, 2-(2-((6-ethylpyridin-2-yl)amino)thiazol-4-yl)-N-(5-methylthiazol-2-yl)acetamide] | 542 nM | – | – |
| Cc1cnc(NC(=O)Cc2csc(NC(=O)c3cccc(Br)n3)n2)s1 [HQ014, 6-bromo-N-(4-(2-((5-methylthiazol-2-yl)amino)−2-oxoethyl)thiazol-2-yl) Picolinamide] | – | 9.9% | CCNK degradation activity relative to HQ461 (CCNK-luc reporter): losses in activity |
| Cc1cnc(NC(=O)Cc2csc(Nc3ccccn3)n2)s1 [HQ010, N-(5-methylthiazol-2-yl)−2-(2-(pyridin-2-ylamino)thiazol-4-yl)acetamide] | 811 nM | – | fold increase in DC50 relative to HQ461 (CCNK-luc reporter): 6 fold |
| Nc1nc(CC(=O)Nc2nc(-c3ccco3)cs2)cs1 [HQ013, 2-(2-aminothiazol-4-yl)-N-(4-(furan-2-yl)thiazol-2-yl)acetamide] | – | 8.6% | – |
| Cc1cccc(Nc2nc(CC(N)=O)cs2)n1 [HQ017] | – | 4.2% | – |
| Cc1cnc(NC(=O)Cc2csc(Nc3cccc(Cl)n3)n2)s1 [HQ002, 2-(2-((6-chloropyridin-2-yl)amino)thiazol-4-yl)-N-(5-methylthiazol-2-yl)acetamide] | 471 nM | – | – |
| Cc1cnc(NC(=O)Cc2csc(Nc3cccc(C(F)(F)F)n3)n2)s1 [HQ009, N-(5-methylthiazol-2-yl)−2-(2-((6-(trifluoromethyl)pyridin-2-yl)amino)thiazol-4-yl)acetamide] | 2360 nM | – | – |
| Cc1cnc(NC(=O)Cc2csc(Nc3cccc(-n4cccn4)n3)n2)s1 [HQ008, 2-(2-((6-(1H-pyrazol-1-yl)pyridin-2-yl)amino)thiazol-4-yl)-N-(5-methylthiazol-2-yl)acetamide] | 5030 nM | – | fold increase in DC50 relative to HQ461 (CCNK-luc reporter): 38 fold |
| NS(=O)(=O)OC[C@@H]1C[C@@H](n2ccc3c(N[C@H]4CCc5ccccc54)ncnc32)C[C@@H]1O [MLN4924] | – | – | effect on HQ461-dependent CCNK degradation (CCNK): abrogated HQ461-dependent CCNK degradation |
| CC(C)C[C@H](NC(=O)[C@H](Cc1ccccc1)NC(=O)c1cnccn1)B(O)O [bortezomib] | – | – | effect on HQ461-dependent CCNK degradation (CCNK): abrogated HQ461-dependent CCNK degradation |
| COc1cccc(Nc2nc(CC(=O)Nc3ncc(C)s3)cs2)n1 [HQ006, 2-(2-((6-methoxypyridin-2-yl)amino)thiazol-4-yl)-N-(5-methylthiazol-2-yl)acetamide] | 466 nM | – | – |
| Cc1cnc(NC(=O)Cc2csc(Nc3cccc(Br)n3)n2)s1 [HQ003, 2-(2-((6-bromopyridin-2-yl)amino)thiazol-4-yl)-N-(5-methylthiazol-2-yl)acetamide] | 407 nM | – | – |
| Cc1cccc(Nc2nc(CC(=O)NC(C)c3ccccc3)cs2)n1 (centres unmarked) [HQ015] | – | 8.6% | – |
| B1 | – | – | increase in Tm [2]: 2 °C |
